# The source made the active and inactive calls. The rule behind the calls is not given here.
# Legend:
# MCF7 [1] = assay: Antiproliferative activity against human MCF7 cells assessed as inhibition of cell growth measured after 48 hrs by MTT assay; type: functional, cell-based; conditions: MCF7, 48 h
# MDA-MB-231 = assay: Antiproliferative activity against human MDA-MB-231 cells assessed as inhibition of cell growth measured after 48 hrs by MTT assay; type: functional, cell-based; conditions: MDA-MB-231, 48 h
# MCF-10A = assay: Cytotoxicity against human MCF-10A cells assessed as reduction in cell viability measured after 48 hrs by MTT assay; type: cell-based
# MCF7 [2] = assay: Inhibition of cell proliferation in human MCF7 cells assessed as increase in intracellular NO production at 25 uM measured after 2.5 hrs by nitric oxide assay; type: functional, cell-based
SMILES,IC50 (MCF7 [1]),IC50 (MDA-MB-231),IC50 (MCF-10A),Activity (MCF7 [2])
COc1cc2cc(N)c(=O)oc2cc1OCCCOc1no[n+]([O-])c1S(=O)(=O)c1ccccc1,2.02 µM,1.39 µM,6.45 µM,
COc1cc2cc(C(=O)Nc3ccccc3)c(=O)oc2cc1OCCCOc1no[n+]([O-])c1S(=O)(=O)c1ccccc1,0.74 µM,1.19 µM,9.67 µM,Active
COc1cc2cc(C(=O)NCCCc3ccccc3)c(=O)oc2cc1OCCCOc1no[n+]([O-])c1S(=O)(=O)c1ccccc1,0.87 µM,0.76 µM,5.33 µM,Active
COc1cc2cc(C(=O)NCc3ccccc3)c(=O)oc2cc1OCCCOc1no[n+]([O-])c1S(=O)(=O)c1ccccc1,0.74 µM,1.06 µM,7.03 µM,Active

# Compounds with a lower IC50 (MCF7 [1]), results first:
IC50 (MCF7 [1]),IC50 (MDA-MB-231),SMILES,IC50 (MCF-10A),Activity (MCF7 [2])
0.41 µM,0.73 µM,COc1ccc(NC(=O)c2cc3cc(OC)c(OCCCOc4no[n+]([O-])c4S(=O)(=O)c4ccccc4)cc3oc2=O)cc1,5.47 µM,Active
0.51 µM,0.55 µM,COc1cccc2c1C(=O)c1c(O)c3c(c(O)c1C2=O)C[C@@](O)(C(=O)CO)C[C@@H]3O[C@H]1C[C@H](N)[C@H](O)[C@H](C)O1 [DOXORUBICIN],0.49 µM,
0.6 µM,0.69 µM,COc1cc2cc(C(=O)NCCCc3ccc(F)cc3)c(=O)oc2cc1OCCCOc1no[n+]([O-])c1S(=O)(=O)c1ccccc1,8.92 µM,Active

# Reference: ChEMBL document CHEMBL4842344, “Design, synthesis and biological activity evaluation of novel scopoletin-NO donor derivatives against MCF-7 human breast cancer in vitro and in vivo” (Eur J Med Chem, 2021)
